Measurements reported in US10906873B2, “Substituted cyclic amides as herbicides” (FMC Corporation, priority 2015, dated 2021).

How the values were obtained:
Type in all cases: in vivo
[1] = tested on: ducksalad (Heteranthera limosa); experiment: Test B flooded paddy test, ducksalad; details: Flood, scale of 0 to 100 where 0 is no effect and 100 is complete control, 13 to 15 d
Procedure, shortened: (§1)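 Ratings use a 0-100 visual scale, where 100 is complete control, and compare treated plants with controls after 13 to 15 d of greenhouse growth. Compound went straight into paddy water kept 3 cm over the soil surface, applied to seedlings at the 2-leaf stage.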

[2] = tested on: ryegrass, It. (Italian ryegrass, Lolium multiflorum); experiment: Test A preemergence, ryegrass, It.; details: 0 to 100 scale
Procedure, shortened: (§2)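 Pre: seeds planted in loam/sand, directed soil spray. Post: 2–10 cm plants, 1–2 leaf. Formulation: non-phytotoxic solvent + surfactant. Greenhouse ~10 d; visual injury vs untreated, 0 = no effect, 100 = complete control.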

[3] = tested on: pigweed (Amaranthus retroflexus); experiment: Test A postemergence, pigweed; details: 0 to 100 scale
Procedure, shortened: as §2

[4] = tested on: blackgrass (Alopecurus myosuroides); experiment: Test A postemergence, blackgrass; details: 0 to 100 scale
Procedure, shortened: as §2

[5] = tested on: sedge, umbrella (small-flower umbrella sedge, Cyperus difformis); experiment: Test B flooded paddy test, sedge, umbrella; details: Flood, scale of 0 to 100 where 0 is no effect and 100 is complete control, 13 to 15 d
Procedure, shortened: as §1

[6] = tested on: foxtail, giant (giant foxtail, Setaria faberii); experiment: Test A postemergence, foxtail, giant; details: 0 to 100 scale
Procedure, shortened: as §2

[7] = tested on: ryegrass, It. (Italian ryegrass, Lolium multiflorum); experiment: Test A postemergence, ryegrass, It.; details: 0 to 100 scale
Procedure, shortened: as §2

[8] = tested on: barnyardgrass (Echinochloa crus-galli); experiment: Test A postemergence, barnyardgrass; details: 0 to 100 scale
Procedure, shortened: as §2

corn (Zea mays) = experiment: Test A postemergence, corn; details: 0 to 100 scale
Procedure, shortened: as §2

kochia (Kochia scoparia) [9] = experiment: Test A preemergence, kochia; details: 0 to 100 scale
Procedure, shortened: as §2

[10] = tested on: ragweed (common ragweed, Ambrosia elatior); experiment: Test A preemergence, ragweed; details: 0 to 100 scale
Procedure, shortened: as §2

[11] = tested on: galium (catchweed bedstraw, Galium aparine); experiment: Test A postemergence, galium; details: 0 to 100 scale
Procedure, shortened: as §2

[12] = tested on: ragweed (common ragweed, Ambrosia elatior); experiment: Test A postemergence, ragweed; details: 0 to 100 scale
Procedure, shortened: as §2

[13] = tested on: barnyardgrass (Echinochloa crus-galli); experiment: Test B flooded paddy test, barnyardgrass; details: Flood, scale of 0 to 100 where 0 is no effect and 100 is complete control, 13 to 15 d
Procedure, shortened: as §1

rice (Oryza sativa) = experiment: Test B flooded paddy test, rice; details: Flood, scale of 0 to 100 where 0 is no effect and 100 is complete control, 13 to 15 d
Procedure, shortened: as §1

[14] = tested on: foxtail, giant (giant foxtail, Setaria faberii); experiment: Test A preemergence, foxtail, giant; details: 0 to 100 scale
Procedure, shortened: as §2

[15] = tested on: wheat (Triticum aestivum); experiment: Test A postemergence, wheat; details: 0 to 100 scale
Procedure, shortened: as §2

[16] = tested on: pigweed (Amaranthus retroflexus); experiment: Test A preemergence, pigweed; details: 0 to 100 scale
Procedure, shortened: as §2

kochia (Kochia scoparia) [17] = experiment: Test A postemergence, kochia; details: 0 to 100 scale
Procedure, shortened: as §2

[18] = tested on: barnyardgrass (Echinochloa crus-galli); experiment: Test A preemergence, barnyardgrass; details: 0 to 100 scale
Procedure, shortened: as §2

Structure (SMILES)	Plant response rating, Ryegrass, It. ([2]; 125 g ai/ha)	Plant response rating, Ryegrass, It. ([2]; 500 g ai/ha)	Plant response rating, Pigweed ([3]; 125 g ai/ha)	Plant response rating, Pigweed ([3]; 500 g ai/ha)	Plant response rating, Blackgrass ([4]; 125 g ai/ha)	Plant response rating, Blackgrass ([4]; 500 g ai/ha)	Plant response rating, Foxtail, Giant ([6]; 125 g ai/ha)	Plant response rating, Foxtail, Giant ([6]; 500 g ai/ha)	Plant response rating, Ryegrass, It. ([7]; 125 g ai/ha)	Plant response rating, Ryegrass, It. ([7]; 500 g ai/ha)	Plant response rating, Barnyardgrass ([8]; 125 g ai/ha)	Plant response rating, Barnyardgrass ([8]; 500 g ai/ha)	Plant response rating, Corn (corn (Zea mays); 125 g ai/ha)	Plant response rating, Corn (corn (Zea mays); 500 g ai/ha)	Plant response rating, Kochia (kochia (Kochia scoparia) [9]; 125 g ai/ha)	Plant response rating, Kochia (kochia (Kochia scoparia) [9]; 500 g ai/ha)	Plant response rating, Ragweed ([10]; 125 g ai/ha)	Plant response rating, Ragweed ([10]; 500 g ai/ha)	Plant response rating, Galium ([11]; 125 g ai/ha)	Plant response rating, Galium ([11]; 500 g ai/ha)	also measured
O=C1NCC(Cc2ccc(F)c(F)c2)C1C(=O)Nc1cccc(F)c1F (stereo not drawn) [Compound 12]	0	0	0	0	0	0	0	0	0	0	0	0	0	0	0	0	0	0	0	0	Plant response rating, Ducksalad ([1]; 500 g ai/ha): 0; Plant response rating, Sedge, Umbrella ([5]; 500 g ai/ha): 0; Plant response rating, Ragweed ([12]; 125 g ai/ha): 0; Plant response rating, Ragweed ([12]; 500 g ai/ha): 0; Plant response rating, Barnyardgrass ([13]; 500 g ai/ha): 0; Plant response rating, Rice (rice (Oryza sativa); 500 g ai/ha): 0; Plant response rating, Foxtail, Giant ([14]; 125 g ai/ha): 0; Plant response rating, Foxtail, Giant ([14]; 500 g ai/ha): 60; Plant response rating, Wheat ([15]; 125 g ai/ha): 0; Plant response rating, Wheat ([15]; 500 g ai/ha): 0; Plant response rating, Pigweed ([16]; 125 g ai/ha): 0; Plant response rating, Pigweed ([16]; 500 g ai/ha): 0; Plant response rating, Kochia (kochia (Kochia scoparia) [17]; 125 g ai/ha): 0; Plant response rating, Kochia (kochia (Kochia scoparia) [17]; 500 g ai/ha): 0; Plant response rating, Barnyardgrass ([18]; 125 g ai/ha): 0; Plant response rating, Barnyardgrass ([18]; 500 g ai/ha): 60
O=C1NCC(/C=C/c2ccccc2F)C1C(=O)Nc1cccc(F)c1F (stereo not drawn) [Compound 28]	0	0	0	0	0	0	20	50	0	0	50	70	0	0	0	0	0	0	0	20	Plant response rating, Ducksalad ([1]; 250 g ai/ha): 90; Plant response rating, Sedge, Umbrella ([5]; 250 g ai/ha): 50; Plant response rating, Ragweed ([12]; 125 g ai/ha): 0; Plant response rating, Ragweed ([12]; 500 g ai/ha): 0; Plant response rating, Barnyardgrass ([13]; 250 g ai/ha): 90; Plant response rating, Rice (rice (Oryza sativa); 250 g ai/ha): 10; Plant response rating, Foxtail, Giant ([14]; 125 g ai/ha): 50; Plant response rating, Foxtail, Giant ([14]; 500 g ai/ha): 90; Plant response rating, Wheat ([15]; 125 g ai/ha): 0; Plant response rating, Wheat ([15]; 500 g ai/ha): 0; Plant response rating, Pigweed ([16]; 125 g ai/ha): 0; Plant response rating, Pigweed ([16]; 500 g ai/ha): 0; Plant response rating, Kochia (kochia (Kochia scoparia) [17]; 125 g ai/ha): 0; Plant response rating, Kochia (kochia (Kochia scoparia) [17]; 500 g ai/ha): 0; Plant response rating, Barnyardgrass ([18]; 125 g ai/ha): 50; Plant response rating, Barnyardgrass ([18]; 500 g ai/ha): 90
O=C1NCC(CCc2ccccc2)C1C(=O)Nc1cccc(F)c1F (stereo not drawn) [Compound 35, N-(2,3-difluorophenyl)-2-oxo-4-(2-phenylethyl)-3-pyrrolidinecarboxamide]	0	0	0	0	0	0	0	30	0	0	0	30	0	0	0	50	0	0	0	0	Plant response rating, Ducksalad ([1]; 250 g ai/ha): 70; Plant response rating, Sedge, Umbrella ([5]; 250 g ai/ha): 0; Plant response rating, Ragweed ([12]; 125 g ai/ha): 0; Plant response rating, Ragweed ([12]; 500 g ai/ha): 0; Plant response rating, Barnyardgrass ([13]; 250 g ai/ha): 0; Plant response rating, Rice (rice (Oryza sativa); 250 g ai/ha): 0; Plant response rating, Foxtail, Giant ([14]; 125 g ai/ha): 0; Plant response rating, Foxtail, Giant ([14]; 500 g ai/ha): 60; Plant response rating, Wheat ([15]; 125 g ai/ha): 0; Plant response rating, Wheat ([15]; 500 g ai/ha): 0; Plant response rating, Pigweed ([16]; 125 g ai/ha): 0; Plant response rating, Pigweed ([16]; 500 g ai/ha): 0; Plant response rating, Kochia (kochia (Kochia scoparia) [17]; 125 g ai/ha): 0; Plant response rating, Kochia (kochia (Kochia scoparia) [17]; 500 g ai/ha): 0; Plant response rating, Barnyardgrass ([18]; 125 g ai/ha): 0; Plant response rating, Barnyardgrass ([18]; 500 g ai/ha): 30
O=C1NCC(/C=C/c2cccc(F)c2)C1C(=O)Nc1cccc(F)c1F (stereo not drawn) [Compound 30]	0	0	0	0	0	0	40	80	0	0	50	80	0	20	70	80	0	0	0	20	Plant response rating, Ducksalad ([1]; 250 g ai/ha): 95; Plant response rating, Sedge, Umbrella ([5]; 250 g ai/ha): 0; Plant response rating, Ragweed ([12]; 125 g ai/ha): 0; Plant response rating, Ragweed ([12]; 500 g ai/ha): 0; Plant response rating, Barnyardgrass ([13]; 250 g ai/ha): 70; Plant response rating, Rice (rice (Oryza sativa); 250 g ai/ha): 15; Plant response rating, Foxtail, Giant ([14]; 125 g ai/ha): 60; Plant response rating, Foxtail, Giant ([14]; 500 g ai/ha): 90; Plant response rating, Wheat ([15]; 125 g ai/ha): 0; Plant response rating, Wheat ([15]; 500 g ai/ha): 20; Plant response rating, Pigweed ([16]; 125 g ai/ha): 0; Plant response rating, Pigweed ([16]; 500 g ai/ha): 0; Plant response rating, Kochia (kochia (Kochia scoparia) [17]; 125 g ai/ha): 0; Plant response rating, Kochia (kochia (Kochia scoparia) [17]; 500 g ai/ha): 0; Plant response rating, Barnyardgrass ([18]; 125 g ai/ha): 50; Plant response rating, Barnyardgrass ([18]; 500 g ai/ha): 90
Cc1cccc(C#CC2CNC(=O)C2C(=O)Nc2cccc(F)c2F)c1 (stereo not drawn) [Compound 22]	0	0	0	0	0	0	20	50	0	0	40	70	0	20	0	20	0	0	0	20	Plant response rating, Ducksalad ([1]; 250 g ai/ha): 70; Plant response rating, Sedge, Umbrella ([5]; 250 g ai/ha): 0; Plant response rating, Ragweed ([12]; 125 g ai/ha): 0; Plant response rating, Ragweed ([12]; 500 g ai/ha): 0; Plant response rating, Barnyardgrass ([13]; 250 g ai/ha): 0; Plant response rating, Rice (rice (Oryza sativa); 250 g ai/ha): 0; Plant response rating, Foxtail, Giant ([14]; 125 g ai/ha): 50; Plant response rating, Foxtail, Giant ([14]; 500 g ai/ha): 70; Plant response rating, Wheat ([15]; 125 g ai/ha): 0; Plant response rating, Wheat ([15]; 500 g ai/ha): 0; Plant response rating, Pigweed ([16]; 125 g ai/ha): 0; Plant response rating, Pigweed ([16]; 500 g ai/ha): 0; Plant response rating, Kochia (kochia (Kochia scoparia) [17]; 125 g ai/ha): 0; Plant response rating, Kochia (kochia (Kochia scoparia) [17]; 500 g ai/ha): 0; Plant response rating, Barnyardgrass ([18]; 125 g ai/ha): 60; Plant response rating, Barnyardgrass ([18]; 500 g ai/ha): 80
